The text below walks through data of US20080108676A1, “Benzothiazolecarboxamides” (New Benzothiazolecarboxamides, priority 2004, published 2008).

The assay deals with T1, hVR1 (Homo sapiens, UniProt Q8NER1).
T1 construct: expressed in transfected cells
Kind of assay: hVR1 FLIPR (Fluorometric Image Plate Reader) screening assay, IC50 determination. In kind it is cell-based. To be noted: agonist capsaicin, inhibition of increase in intracellular calcium. The procedure: 1. hVR1 FLIPR (Fluorometric Image Plate Reader) screening assay
Transfected CHO cells, stably expessing hVR1 (15,000 cells/well) are seeded in 50 ul media in a black clear bottom 384 plate (Greiner) and grown in a humidified incubator (37° C., 2% CO2), 24-30 hours prior to experiment.
Subsequently, the media is removed from the cell plate by inversion and 2 μM Fluo-4 is added using a multidrop (Labsystems). Following the 40 minutes dye incubation in the dark at 37° C. and 2% CO2, the extracellular dye present is washed away using an EMBLA (Scatron), leaving the cells in 40 ul of assay buffer (1×HBSS, 10 mM D-Glucose, 1 mM CaCl2, 10 mM HEPES, 10×7.5% NaHCO3 and 2.5 mM Probenecid).
FLIPR Assay—IC50 Determination Protocol
For IC50 determinations the fluorescence is read using FLIPR filter 1 (em […]). A cellular baseline recording is taken for 30 seconds, followed by a 20 μl addition of 10, titrated half-log concentrations of the test compound, yielding cellular concentration ranging from 3 μM to 0.1 nM. Data is collected every 2 seconds for a further 5 minutes prior to the addition of a VR1 agonist solution: either 50 nM solution of capsaicin or MES (2-[N-morpholino]ethanesulfonic acid) buffer (pH 5.2), by the FLIPR pipettor. The FLIPR continues to collect data for a further 4 minutes. […] This consequently leading to a reduction in fluorescence signal and providing a reduced fluorescence reading, compared with no compound, buffer controls. Data is exported by the FLIPR program as a sum of fluorescence calculated under the curve upon the addition of capsaicin. […]
FLIPR (Fluorometric Image Plate Reader) screening assay with HEK T-REX hVR1. […]
For IC50 determinations the fluorescence is read using FLIPR filter 1 (em […]). […] This consequently leading to a reduction in fluorescence signal and providing a reduced fluorescence reading, compared with no compound, buffer controls. Data is exported by the FLIPR program as a sum of fluorescence calculated under the curie upon the addition of capsaicin. […]
(Calcium flux is commonly read through the fluorescence of an indicator in the cells.)

T1 sequence (Q8NER1 whole entry): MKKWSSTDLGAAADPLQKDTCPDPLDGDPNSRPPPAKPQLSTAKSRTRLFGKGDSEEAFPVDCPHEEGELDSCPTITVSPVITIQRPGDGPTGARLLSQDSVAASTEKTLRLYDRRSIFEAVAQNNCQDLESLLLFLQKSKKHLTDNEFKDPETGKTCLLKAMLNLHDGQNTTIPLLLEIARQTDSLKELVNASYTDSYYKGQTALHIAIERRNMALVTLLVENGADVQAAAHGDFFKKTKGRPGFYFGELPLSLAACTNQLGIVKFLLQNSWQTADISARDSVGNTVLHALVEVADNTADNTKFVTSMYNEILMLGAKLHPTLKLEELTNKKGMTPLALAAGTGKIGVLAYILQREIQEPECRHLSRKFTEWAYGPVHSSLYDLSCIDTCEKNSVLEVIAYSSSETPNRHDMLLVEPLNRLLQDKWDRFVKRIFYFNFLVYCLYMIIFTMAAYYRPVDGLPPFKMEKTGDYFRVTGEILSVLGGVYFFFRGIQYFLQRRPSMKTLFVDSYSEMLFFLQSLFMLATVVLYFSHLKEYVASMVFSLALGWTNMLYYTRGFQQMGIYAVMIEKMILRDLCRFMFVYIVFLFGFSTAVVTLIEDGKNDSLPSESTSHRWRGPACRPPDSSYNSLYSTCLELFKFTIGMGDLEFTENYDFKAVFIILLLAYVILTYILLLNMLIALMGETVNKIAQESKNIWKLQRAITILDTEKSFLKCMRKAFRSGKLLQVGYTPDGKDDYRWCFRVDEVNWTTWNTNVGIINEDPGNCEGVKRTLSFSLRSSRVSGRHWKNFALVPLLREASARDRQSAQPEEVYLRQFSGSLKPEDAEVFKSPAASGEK

In general, IC50 refers to the concentration at which inhibition is half-maximal. For `Cc1nc2cc(C(=O)NCc3ccc(C(F)(F)F)cc3)ccc2s1` [Example 7, 2-methyl-N-[4-trifluoromethylbenzyl]-1,3-benzothiazole-5 carboxamide], the IC50 turned out to be 2780 nM.
To `Cc1nc2cc(C(=O)NCc3cccc(C(F)(F)F)c3)ccc2s1` [Example 8, 2-methyl-N-[3-trifluoromethylbenzyl]-1,3-benzothiazole-5-carboxamide] belongs 1660 nM; to `Cc1nc2cc(C(=O)Nc3ccc(C(C)(C)C)cc3)ccc2s1` [Example 1, N-4-tert-butylphenyl-2-methyl-1,3-benzothiazole-5-carboxamide], 226 nM.
